The values below come from patent publication US20090005398A1, “Methods For The Treatment of Central Nervous System Tumors” (priority 2007, published 2009).

What all share (type): cell-based
For one test, the system named is cancer cell lines. As to the kind of experiment: Methylene Blue, Cell-Titre Glo Growth or Multiple Cell Line cellular proliferation assays. The procedure:
Generally, exponentially growing cell lines of different tumor origins, cultured in appropriate media containing 10% fetal bovine serum at 37° C. in a 5% CO2 incubator were plated at low density (less than 2000 cells/well) in 96-well plates. Twenty four hours post-plating, cells were treated with different concentrations of compound ranging from 10 uM to 0.04 nM. Several wells were left untreated as a control. Seventy two hours post-treatment, cell numbers were determined using 100 μl per well of methylene blue (Sigma M9140) (0.5% in 50:50 Ethanol:water). Stain was incubated at room temperature for 30 minutes before plates were rinsed and dye solubilized in 1% N-lauroyl sarcosine, sodium salt, (Sigma L5125, in PBS) (further details of a methylene blue assay are described below). Plates were read on a microplate reader, measuring the OD at 620 nm.
Exponentially growing cell lines of different tumor origins, cultured in appropriate media containing 10% fetal bovine serum at 37° C. in a 5% CO2 incubator were plated at low density (less than 2000 cells/well) in 96-well plates. […] Seventy two hours post-treatment, cell numbers were determined using 50-100 ul per well of CellTiter-Glo (Promega #G7573). Plates were incubated at room temperature for 15 minutes and the chemiluminescent signal was read on the Victor V or Envison 2100 reader. […]

The next test deals with PANC-1. As to the kind of experiment: Cell-Titer-Glo cell proliferation. As to conditions: Homo sapiens, pancreas, 72 h. The procedure: (§1) Exponentially growing cell lines of different tumor origins, cultured in appropriate media containing 10% fetal bovine serum at 37° C. in a 5% CO2 incubator were plated at low density (less than 2000 cells/well) in 96-well plates. Twenty four hours post-plating, cells were treated with different concentrations of compound ranging from 10 uM to 0.04 nM. Several wells were left untreated as a control. Seventy two hours post-treatment, cell numbers were determined using 50-100 ul per well of CellTiter-Glo (Promega #G7573). Plates were incubated at room temperature for 15 minutes and the chemiluminescent signal was read on the Victor V or Envison 2100 reader.
(§2) Concentration of compound that inhibited 50% of cell growth (IC50) was determined by 4 parameter fit of data using XLfit, (value of no cell control was subtracted from all samples for background). The Cell-Titer Glo data are shown in Table 3 below and represent a compilation of several different experiments, each performed using the general parameters outlined above, although minor variations may have been employed in some instances.

For another test, the system named is P388. Nature of the test: Cell-Titer-Glo cell proliferation. As to conditions: Mus musculus, blood, 72 h. The procedure: as §1, §2
The next test concerns MiaPaca. As to the kind of experiment: Cell-Titer-Glo cell proliferation. To be noted: Homo sapiens, MIA PaCa-2, pancreas, 72 h. The method, then: as §1, §2
For a further test, the system named is MV522. As to the kind of experiment: Cell-Titer-Glo cell proliferation. To be noted: lung, 72 h. The procedure: as §1, §2
In a further test the test system is MX-1. As to the kind of experiment: Cell-Titer-Glo cell proliferation. To be noted: Homo sapiens, MX1, breast, 72 h. The procedure: as §1, §2
In a further test the test system is H1299. Nature of the test: Cell-Titer-Glo cell proliferation. To be noted: Homo sapiens, NCI-H1299, lung, 72 h. The method, then:
as §1, §2

The test system of another test is COLO205. Nature of the test: Cell-Titer-Glo cell proliferation. To be noted: Homo sapiens, COLO 205, colon, 72 h. The method, then: as §1, §2
For another test, the system named is ASPC3. As to the kind of experiment: Cell-Titer-Glo cell proliferation. To be noted: pancreas, 72 h. The procedure:
as §1, §2

Another test deals with MCF7. Nature of the test: Cell-Titer-Glo cell proliferation. To be noted: Homo sapiens, breast, 72 h. The procedure: as §1, §2
The subject of another test is SKOV-3. Nature of the test: Cell-Titer-Glo cell proliferation. To be noted: Homo sapiens, SK-OV-3, ovary, 72 h. The procedure:
as §1, §2

Another test deals with HN5. Nature of the test: Cell-Titer-Glo cell proliferation. To be noted: Homo sapiens, head and neck, 72 h. The procedure:
as §1, §2

The subject of the next test is LNCaP. As to the kind of experiment: Cell-Titer-Glo cell proliferation. As to conditions: Homo sapiens, prostate, 72 h. The procedure:
as §1, §2

The subject of another test is HT29. Nature of the test: Cell-Titer-Glo cell proliferation. To be noted: Homo sapiens, HT-29, colon, 72 h. The procedure:
as §1, §2

In another test the test system is HCT116. As to the kind of experiment: Cell-Titer-Glo cell proliferation. To be noted: Homo sapiens, HCT-116, colon, 72 h. The procedure:
as §1, §2

The subject of a further test is MDA-MB-468. Nature of the test: Cell-Titer-Glo cell proliferation. As to conditions: Homo sapiens, breast, 72 h. The procedure:
as §1, §2

Another test deals with BXPC3. Nature of the test: Cell-Titer-Glo cell proliferation. To be noted: Homo sapiens, BXPC-3, pancreas, 72 h. The procedure:
as §1, §2

The next test concerns A549-L. As to the kind of experiment: Cell-Titer-Glo cell proliferation. To be noted: lung, 72 h. The method, then: as §1, §2
The next test relates to Hela. Nature of the test: Cell-Titer-Glo cell proliferation. As to conditions: Homo sapiens, cervix, 72 h. The method, then: as §1, §2
The test system of the next test is glioma cell lines. Nature of the test: Washout assay, all cell lines together. To be noted: all seven glioma cell lines of Table 5. The procedure: Seven glioma cell lines that can double at least once over three days were thawed and grown to 70-80% confluency before being used in the assay. On day 1, for each cell line, 2-3×10^5 cells were seeded into each well in 6-well cell culture plates and incubated at 37° C. overnight. […] The plates were incubated at 37° C. for 3 days.
On day 5, the compound was efficiently washed four times with culture medium supplemented with 20% fetal bovine serum (FBS) and then washed once in buffered saline solution (PBS). The cells were trypsinized. For each of the concentrations, compound-treated cell lines were plated into five 96-well plates at 5000 cells per well. For the next 4 consecutive days, one plate of the cells was taken out of the incubator and cell proliferation was measured by MTT ELISA assay.
The washout assay is designed to follow the cells' recovery from exposure to the compound. Each glioma cell line was assayed at least twice. The criteria for evaluating sensitivity or resistance was Last Growth Back Concentration (LGC), if LGC<=30 nM, the cell line is considered sensitive; if LGC>=1 uM, it is considered resistant; if LGC is in between these two concentrations, the cell line is considered intermediate. Based on criteria set, all the glioma cell lines appeared to be sensitive to the compound of Example 1.

As usually defined, the IC50 is the concentration that gives 50% inhibition.

Bounds are passed on as bounds.

For the molecule `C[C@@H](Oc1cc(-n2cnc3ccc(CN4CCN(C)CC4)cc32)sc1C(N)=O)c1ccccc1C(F)(F)F` [Example 1, 5-{6-[(4-Methylpiperazin-1-yl)methyl]-1H-benzimidazol-1-yl}-3-{(1R)-1-[2-(trifluoromethyl)phenyl]ethoxy}thiophene-2-carboxamide], the IC50 in the test on cancer cell lines is under 1000 nM; with PANC-1 it was under 500 nM; in the test on P388, under 500 nM; in the test with MiaPaca, under 500 nM; with MV522, under 500 nM; with MX-1 it was under 500 nM. For the same molecule, the IC50 in the test on H1299, in the test with COLO205, with ASPC3, with MCF7, in the test on SKOV-3 and in the test with HN5 was under 500 nM in each case. The IC50 with LNCaP, in the test on HT29, in the test with HCT116, in the test on MDA-MB-468, in the test on BXPC3 and in the test with A549-L was under 500 nM each time. The molecule also displayed an IC50 in the test on Hela of under 500 nM. Also, the “sensitivity of glioma cell lines by LGC criteria” value with glioma cell lines is listed as “sensitive (LGC<=30 nM)”.
